Key:
human MRGPRX2 [1] = target: T1, human MRGPRX2 (Homo sapiens, UniProt Q96LB1); assay: Calcium mobilization (Fluo-4 AM) in MRGPRX2 expressing Chem-1 cells; format: cell-based; design: host or cells: Chem-1 cells (G418-selected); conditions: for inhibition of the activation of the MRGPRX2 receptor caused by bevemipretide: MRGPRX2 expressing cells with 100 μM of bevemipretide, FIGS. 7A and 7B; for activation of the MRGPRX2 expressing cells (calcium response): MRGPRX2 expressing Chem-1 cells, FIG. 5A, FIG. 6
T1 sequence (Q96LB1 1-330): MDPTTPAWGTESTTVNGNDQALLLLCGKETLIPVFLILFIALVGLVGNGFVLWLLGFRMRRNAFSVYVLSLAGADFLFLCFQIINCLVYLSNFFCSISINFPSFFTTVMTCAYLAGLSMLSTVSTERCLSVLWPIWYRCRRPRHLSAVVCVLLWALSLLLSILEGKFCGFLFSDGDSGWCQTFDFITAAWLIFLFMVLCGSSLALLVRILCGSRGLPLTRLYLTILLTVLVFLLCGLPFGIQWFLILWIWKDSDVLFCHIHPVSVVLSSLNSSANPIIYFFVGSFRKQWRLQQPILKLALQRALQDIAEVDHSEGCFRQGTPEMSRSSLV
Procedure: (§1) MRGPRX2 expressing and control (non-MRGPRX2 expressing) Chem-1 cells lines were obtained from Discovery Services, EuroFins. Cells were cultured in Dulbecco's Modified Eagle Medium (DMEM) high glucose medium (4.5 g/L) with 10% fetal bovine serum (FBS), non-essential amino acids, and N-2-hydroxyethylpiperazine-N′-2-ethanesulfonic acid (HEPES) buffer (pH 7.0-7.6). Geneticin (G418) was used for selection of MRGPRX2-expressing Chem-1 cells. Cells were maintained at 37° C. at 5% CO2. Cells were seeded to a glass bottom 96-well plates at a density of 50,000 per well (Cellvis). Cells were loaded with Fluo-4 AM for 30 minutes at 37° C. at a concentration of 2.5 μM. Cells were washed once with Dulbecco's phosphate buffered saline (DPBS). Cells were rested at room temperature for 30 minutes before use and washed with DPBS. Cells were resuspended in 50 μL phosphate buffered saline (PBS) with calcium and magnesium. To stimulate cells, 50 μL of 2× drug (bevemipretide or leuprolide) or DPBS as a control. Plates were read immediately with a Biotek plate reader. Readings were taken every 6 seconds for 2 minutes.
(§2) This assay was designed as a calcium-based readout of receptor activity.

[2] = Phase 1 human clinical trial, subcutaneous administration; format: in vivo; conditions: phase 1, subcutaneous administration
human MRGPRX2 [3] = target: T1, human MRGPRX2; assay: Fluo-4 calcium assay in HEK293 cells stably expressing human MRGPRX2 and Galpha15 (fluorescent plate reader); format: cell-based; design: expressed in transfected cells; host or cells: clonal HEK293 cell line; conditions: calcium response, multiple runs, FIG. 4
Procedure: A clonal HEK293 cell line stably expressing human MRGPRX2 and Galpha15 was used for the assay, which was performed using a fluorescent plate reader. Cells were plated at 40,000 cells per well in a glass-bottom 96 well plate 20 hours before the assay. Cells were loaded with N-[4-[6-[(Acetyloxy)methoxy]-2,7-difluoro-3-oxo-3H-xanthen-9-yl]-2-[2-[2-[bis[2-[(acetyloxy)methoxy]-2-oxoethyl]amino]-5-methylphenoxy]ethoxy]phenyl]-N-[2-[(acetyloxy)methoxy]-2-oxoethyl]glycine (acetyloxy)methyl ester (Fluo-4 AM) for 45 minutes at 37°° C. and allowed to rest for 30 minutes before use. Baseline fluorescence was calculated as the average of a 30 second read, with data points taken at 5 second intervals. Response was defined as the maximum signal within 90 seconds after addition of bevemipretide, subtracted by the baseline fluorescence signal. Concentrations were tested in duplicate and the assay was run 6 times. The curve was calculated as a four-parameter non-linear fit with variable slope. Traces were obtained using the same cell line and same Fluo-4 AM loading protocol but were imaged using a fluorescence microscope using a standard fluorescein isothiocyanate (FITC) filter. Fluorescence for different cells was calculated using region of interest selections.

[4] = Long term toxicology studies in rats, subcutaneous administration; format: in vivo
[5] = Long term toxicology studies of non-human primates; format: in vivo
[6] = test system: control (non-MRGPRX2 expressing) Chem-1 cells; assay: Calcium mobilization (Fluo-4 AM) in control Chem-1 cells lacking the MRGPRX2 receptor; format: cell-based, human; conditions: parent Chem-1 cells lacking MRGPRX2; FIG. 5B
Procedure: as §1, §2

Structure (SMILES) | inhibition of the activation of the MRGPRX2 receptor caused by bevemipretide (human MRGPRX2 [1]) | activation of the MRGPRX2 expressing cells (calcium response) (human MRGPRX2 [1]) | effect on cells lacking the MRGPRX2 receptor (calcium response) [6] | also measured
O=c1c(O)c(-c2ccc(O)c(O)c2)oc2cc(O)cc(O)c12 [quercetin, 3,3′,4′,5,7-pentahydroxyflavone] | in a dose-dependent manner, inhibit the activation | – | – | –
Cc1cc(O)cc(C)c1C[C@H](NC(=O)[C@H](N)CCCNC(=N)N)C(=O)N[C@@H](CCCCN)c1nc(Cc2ccccc2)no1 [bevemipretide] | – | dose dependent activation | no effect | injection site reactions [2]: injection site reactions were observed as an adverse event; EC50 (human MRGPRX2 [3]): 43.8 to 54.1 µM; injection site reactions [4]: injection site reactions were observed from subcutaneous administration; some being severe at the higher dose levels administered; injection site reactions [5]: generally not severe even at the highest dosages tested
CCNC(=O)[C@@H]1CCCN1C(=O)[C@H](CCCNC(=N)N)NC(=O)[C@H](CC(C)C)NC(=O)[C@@H](CC(C)C)NC(=O)[C@H](Cc1ccc(O)cc1)NC(=O)[C@H](CO)NC(=O)[C@H](Cc1c[nH]c2ccccc12)NC(=O)[C@H](Cc1c[nH]cn1)NC(=O)[C@@H]1CCC(=O)N1 [leuprolide] | – | dose dependent activation | – | –
C[C@@H]1C[C@H]2[C@@H]3CCC4=CC(=O)C=C[C@]4(C)[C@@]3(Cl)[C@@H](O)C[C@]2(C)[C@@]1(O)C(=O)CCl [monetasone, mometasone] | in a dose-dependent manner, inhibit the activation | – | – | –
C[C@H](CCC(=O)O)C[C@H](C)C[C@H](C)C(=O)/C=C(\O)[C@H](C)C[C@H](C)C/C=C/[C@@H](C)[C@@H](O)[C@@H](C)[C@@H](O)C[C@@H]1CC[C@@](C)([C@H]2CC[C@@](C)([C@@H](C)O)O2)O1 [Ionomycin, reference compound] | – | generates a calcium response | generates a calcium response | –
